From the supplement of paper PMC10307832

How the values were obtained:
Test in all cases: relative viability (nuclei count vs DMSO), 5 days (fraction); higher = more cells survive
[1] = compound: CN(c1ncccc1CNc1nc(Nc2ccc3c(c2)CC(=O)N3)ncc1C(F)(F)F)S(C)(=O)=O + COc1cccc2cc(-c3nc([C@H]4CC[C@H](C(=O)O)CC4)n4ncnc(N)c34)[nH]c12 [OSI-027] (partner 0.5 µM)
In short: (§1)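 Medians of duplicate plates are given as relative viability. That measure is the nuclei count in treated wells divided by the count in vehicle wells. Counts were taken on 4× images of lung cancer cell lines in 1536-well plates, 5 days after pin-tool dosing the day after seeding with one drug alone or a fixed anchor-drug dose plus five library-drug doses (not always all listed) in √10 steps.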

[2] = compound: CN(c1ncccc1CNc1nc(Nc2ccc3c(c2)CC(=O)N3)ncc1C(F)(F)F)S(C)(=O)=O + CS(=O)(=O)CCNCc1ccc(-c2ccc3ncnc(Nc4ccc(OCc5cccc(F)c5)c(Cl)c4)c3c2)o1 [Lapatinib] (partner 2 µM)
In short: as §1

[3] = compound: CN(c1ncccc1CNc1nc(Nc2ccc3c(c2)CC(=O)N3)ncc1C(F)(F)F)S(C)(=O)=O + C[C@]1(O)C[C@@H](c2nc(-c3ccc4ccc(-c5ccccc5)nc4c3)c3c(N)nccn32)C1 [Linsitinib] (partner 1 µM)
In short: as §1

[4] = compound: CN(c1ncccc1CNc1nc(Nc2ccc3c(c2)CC(=O)N3)ncc1C(F)(F)F)S(C)(=O)=O + Cc1nc(NC(=O)N2CCC[C@H]2C(N)=O)sc1-c1ccnc(C(C)(C)C(F)(F)F)c1 [Alpelisib] (partner 2 µM)
In short: as §1

Cell Line NCI-H1993 has a relative viability ([1]; first compound 0.01 µM) of 0.456, a relative viability ([1]; first compound 0.03162 µM) of 0.508 and a relative viability ([1]; first compound 0.1 µM) of 0.5. The relative viability ([1]; first compound 0.3162 µM) was 0.541, the relative viability ([1]; first compound 1 µM) was 0.525 and the relative viability ([2]; first compound 0.01 µM) was 0.804. It also gave a relative viability ([2]; first compound 0.03162 µM) of 0.91, a relative viability ([2]; first compound 0.1 µM) of 0.82 and a relative viability ([2]; first compound 0.3162 µM) of 0.889. For the same cell line, the relative viability ([2]; first compound 1 µM) was 0.769, the relative viability ([3]; first compound 0.01 µM) was 0.678 and the relative viability ([3]; first compound 0.03162 µM) was 0.727. For the same cell line, the relative viability ([3]; first compound 0.1 µM) was 0.78, the relative viability ([3]; first compound 0.3162 µM) was 0.771 and the relative viability ([3]; first compound 1 µM) was 0.736. It also gave a relative viability ([4]; first compound 0.01 µM) of 0.739, a relative viability ([4]; first compound 0.03162 µM) of 0.632 and a relative viability ([4]; first compound 0.1 µM) of 0.612. The relative viability ([4]; first compound 0.3162 µM) was 0.663 and the relative viability ([4]; first compound 1 µM) was 0.674.

NCI-H2009 gave a relative viability ([1]; first compound 0.01 µM) of 0.714, a relative viability ([1]; first compound 0.03162 µM) of 0.617 and a relative viability ([1]; first compound 0.1 µM) of 0.607. The relative viability ([1]; first compound 0.3162 µM) was 0.663, the relative viability ([1]; first compound 1 µM) was 0.671 and the relative viability ([2]; first compound 0.01 µM) was 1.38. It also gave a relative viability ([2]; first compound 0.03162 µM) of 0.959, a relative viability ([2]; first compound 0.1 µM) of 0.891 and a relative viability ([2]; first compound 0.3162 µM) of 0.897. It also gave a relative viability ([2]; first compound 1 µM) of 0.903, a relative viability ([3]; first compound 0.01 µM) of 1.14 and a relative viability ([3]; first compound 0.03162 µM) of 1.18. The relative viability ([3]; first compound 0.1 µM) was 1.18, the relative viability ([3]; first compound 0.3162 µM) was 1.24 and the relative viability ([3]; first compound 1 µM) was 1.09. It also gave a relative viability ([4]; first compound 0.01 µM) of 1.12, a relative viability ([4]; first compound 0.03162 µM) of 1.21 and a relative viability ([4]; first compound 0.1 µM) of 1.17. It also gave a relative viability ([4]; first compound 0.3162 µM) of 1.17 and a relative viability ([4]; first compound 1 µM) of 1.1.

In the case of NCI-H2023, the relative viability ([1]; first compound 0.01 µM) is reported as 0.412, the relative viability ([1]; first compound 0.03162 µM) is reported as 0.464 and the relative viability ([1]; first compound 0.1 µM) is reported as 0.404. For the same cell line, the relative viability ([1]; first compound 0.3162 µM) was 0.425, the relative viability ([1]; first compound 1 µM) was 0.393 and the relative viability ([2]; first compound 0.01 µM) was 0.855. It also gave a relative viability ([2]; first compound 0.03162 µM) of 0.976, a relative viability ([2]; first compound 0.1 µM) of 0.781 and a relative viability ([2]; first compound 0.3162 µM) of 0.908. For the same cell line, the relative viability ([2]; first compound 1 µM) was 0.761, the relative viability ([3]; first compound 0.01 µM) was 0.765 and the relative viability ([3]; first compound 0.03162 µM) was 0.714. For the same cell line, the relative viability ([3]; first compound 0.1 µM) was 0.73, the relative viability ([3]; first compound 0.3162 µM) was 0.71 and the relative viability ([3]; first compound 1 µM) was 0.631. It also gave a relative viability ([4]; first compound 0.01 µM) of 0.521, a relative viability ([4]; first compound 0.03162 µM) of 0.677 and a relative viability ([4]; first compound 0.1 µM) of 0.668. For the same cell line, the relative viability ([4]; first compound 0.3162 µM) was 0.59 and the relative viability ([4]; first compound 1 µM) was 0.507.

With NCI-H2085 the relative viability ([1]; first compound 0.01 µM) was 0.77, the relative viability ([1]; first compound 0.03162 µM) was 0.907 and the relative viability ([1]; first compound 0.1 µM) was 0.735. The relative viability ([1]; first compound 0.3162 µM) was 0.734, the relative viability ([1]; first compound 1 µM) was 0.749 and the relative viability ([2]; first compound 0.01 µM) was 0.777. The relative viability ([2]; first compound 0.03162 µM) was 0.81, the relative viability ([2]; first compound 0.1 µM) was 0.797 and the relative viability ([2]; first compound 0.3162 µM) was 0.696. The relative viability ([2]; first compound 1 µM) was 0.662, the relative viability ([3]; first compound 0.01 µM) was 0.925 and the relative viability ([3]; first compound 0.03162 µM) was 0.981. It also gave a relative viability ([3]; first compound 0.1 µM) of 0.895, a relative viability ([3]; first compound 0.3162 µM) of 0.842 and a relative viability ([3]; first compound 1 µM) of 0.776. For the same cell line, the relative viability ([4]; first compound 0.01 µM) was 0.903, the relative viability ([4]; first compound 0.03162 µM) was 0.904 and the relative viability ([4]; first compound 0.1 µM) was 0.882. For the same cell line, the relative viability ([4]; first compound 0.3162 µM) was 0.922 and the relative viability ([4]; first compound 1 µM) was 0.812.

In the case of NCI-H2087, the relative viability ([1]; first compound 0.01 µM) is reported as 0.513, the relative viability ([1]; first compound 0.03162 µM) is reported as 0.766 and the relative viability ([1]; first compound 0.1 µM) is reported as 0.594. For the same cell line, the relative viability ([1]; first compound 0.3162 µM) was 0.659, the relative viability ([1]; first compound 1 µM) was 0.585 and the relative viability ([2]; first compound 0.01 µM) was 1.44. It also gave a relative viability ([2]; first compound 0.03162 µM) of 1.12, a relative viability ([2]; first compound 0.1 µM) of 0.876 and a relative viability ([2]; first compound 0.3162 µM) of 0.927. For the same cell line, the relative viability ([2]; first compound 1 µM) was 0.893, the relative viability ([3]; first compound 0.01 µM) was 1.03 and the relative viability ([3]; first compound 0.03162 µM) was 1.04. For the same cell line, the relative viability ([3]; first compound 0.1 µM) was 1.14, the relative viability ([3]; first compound 0.3162 µM) was 1.16 and the relative viability ([3]; first compound 1 µM) was 0.99. The relative viability ([4]; first compound 0.01 µM) was 1.14, the relative viability ([4]; first compound 0.03162 µM) was 1.18 and the relative viability ([4]; first compound 0.1 µM) was 1.11. It also gave a relative viability ([4]; first compound 0.3162 µM) of 1.12 and a relative viability ([4]; first compound 1 µM) of 1.19.

NCI-H2126 showed a relative viability ([1]; first compound 0.01 µM) of 0.753, a relative viability ([1]; first compound 0.03162 µM) of 0.719 and a relative viability ([1]; first compound 0.1 µM) of 0.638. The relative viability ([1]; first compound 0.3162 µM) was 0.712, the relative viability ([1]; first compound 1 µM) was 0.633 and the relative viability ([2]; first compound 0.01 µM) was 0.732. It also gave a relative viability ([2]; first compound 0.03162 µM) of 0.732, a relative viability ([2]; first compound 0.1 µM) of 0.713 and a relative viability ([2]; first compound 0.3162 µM) of 0.774. It also gave a relative viability ([2]; first compound 1 µM) of 0.721, a relative viability ([3]; first compound 0.01 µM) of 0.698 and a relative viability ([3]; first compound 0.03162 µM) of 0.776. The relative viability ([3]; first compound 0.1 µM) was 0.714, the relative viability ([3]; first compound 0.3162 µM) was 0.721 and the relative viability ([3]; first compound 1 µM) was 0.7. The relative viability ([4]; first compound 0.01 µM) was 0.717, the relative viability ([4]; first compound 0.03162 µM) was 0.739 and the relative viability ([4]; first compound 0.1 µM) was 0.742. For the same cell line, the relative viability ([4]; first compound 0.3162 µM) was 0.743 and the relative viability ([4]; first compound 1 µM) was 0.641.

In the case of NCI-H2228, the relative viability ([1]; first compound 0.01 µM) is reported as 0.825, the relative viability ([1]; first compound 0.03162 µM) is reported as 0.827 and the relative viability ([1]; first compound 0.1 µM) is reported as 0.563. For the same cell line, the relative viability ([1]; first compound 0.3162 µM) was 0.514, the relative viability ([1]; first compound 1 µM) was 0.464 and the relative viability ([2]; first compound 0.01 µM) was 0.835. The relative viability ([2]; first compound 0.03162 µM) was 0.914, the relative viability ([2]; first compound 0.1 µM) was 1.02 and the relative viability ([2]; first compound 0.3162 µM) was 1.07. It also gave a relative viability ([2]; first compound 1 µM) of 1.08, a relative viability ([3]; first compound 0.01 µM) of 0.502 and a relative viability ([3]; first compound 0.03162 µM) of 0.286. The relative viability ([3]; first compound 0.1 µM) was 0.627, the relative viability ([3]; first compound 0.3162 µM) was 1.06 and the relative viability ([3]; first compound 1 µM) was 0.929. For the same cell line, the relative viability ([4]; first compound 0.01 µM) was 0.634, the relative viability ([4]; first compound 0.03162 µM) was 0.766 and the relative viability ([4]; first compound 0.1 µM) was 0.857. It also gave a relative viability ([4]; first compound 0.3162 µM) of 0.633 and a relative viability ([4]; first compound 1 µM) of 0.701.

With NCI-H2347 the relative viability ([1]; first compound 0.01 µM) was 0.339, the relative viability ([1]; first compound 0.03162 µM) was 0.416 and the relative viability ([1]; first compound 0.1 µM) was 0.326. For the same cell line, the relative viability ([1]; first compound 0.3162 µM) was 0.449, the relative viability ([1]; first compound 1 µM) was 0.314 and the relative viability ([2]; first compound 0.01 µM) was 1.04. For the same cell line, the relative viability ([2]; first compound 0.03162 µM) was 1.01, the relative viability ([2]; first compound 0.1 µM) was 0.88 and the relative viability ([2]; first compound 0.3162 µM) was 0.863. The relative viability ([2]; first compound 1 µM) was 0.833, the relative viability ([3]; first compound 0.01 µM) was 0.938 and the relative viability ([3]; first compound 0.03162 µM) was 0.98. For the same cell line, the relative viability ([3]; first compound 0.1 µM) was 0.852, the relative viability ([3]; first compound 0.3162 µM) was 0.947 and the relative viability ([3]; first compound 1 µM) was 0.817. For the same cell line, the relative viability ([4]; first compound 0.01 µM) was 1.06, the relative viability ([4]; first compound 0.03162 µM) was 0.973 and the relative viability ([4]; first compound 0.1 µM) was 0.893. It also gave a relative viability ([4]; first compound 0.3162 µM) of 0.972 and a relative viability ([4]; first compound 1 µM) of 0.817.
